How the values were obtained:
[1] = target: T1, B1R receptor of the rat (bradykinin 1 receptor) (Rattus norvegicus, UniProt P97583); assay: FLIPR Ca2+ assay (Fluo-4) on CHO K1 cells stably transfected with the B1R gene of the rat; % activation and % inhibition at 10 μM; format: cell-based; details: CHO-K1, test substance 10 μM; CHO K1 rB1R cells; Ca2+ inflow after 100 nM Des-Arg9-bradykinin; read-out: B1R antagonism, rat [10 μM] % inhibition
T1 construct: host or cells: CHO K1 cells (rB1R cells)
T1 sequence (P97583 1-337): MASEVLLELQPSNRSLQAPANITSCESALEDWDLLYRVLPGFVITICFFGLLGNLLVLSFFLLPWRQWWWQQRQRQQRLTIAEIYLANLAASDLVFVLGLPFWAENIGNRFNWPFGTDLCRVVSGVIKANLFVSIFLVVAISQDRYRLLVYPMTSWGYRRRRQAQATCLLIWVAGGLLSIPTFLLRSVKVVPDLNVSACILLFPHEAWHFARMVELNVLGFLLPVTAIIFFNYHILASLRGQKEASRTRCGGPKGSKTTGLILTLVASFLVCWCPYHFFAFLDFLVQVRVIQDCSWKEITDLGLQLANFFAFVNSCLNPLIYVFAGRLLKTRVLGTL
Procedure, shortened: (§1)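 Fluo-4 Ca2+ flux on FLIPR in stable hB1R or rB1R CHO K1 lines, two additions. Agonism: 10 µM compound versus 0.5 nM Lys-Des-Arg9-BK (human) or 100 nM Des-Arg9-BK (rat); antagonism: same agonists applied 10 min later, suppression expressed against maximum achievable inhibition.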

[2] = target: T2, human B1R receptor (bradykinin 1 receptor) (Homo sapiens, UniProt P46663); assay: FLIPR Ca2+ assay (Fluo-4) on CHO K1 cells stably transfected with the human B1R gene; % activation and % inhibition at 10 μM; format: cell-based; details: CHO-K1, test substance 10 μM; CHO K1 hB1R cells; Ca2+ inflow after 0.5 nM Lys-Des-Arg9-bradykinin; read-out: B1R antagonism, human [10 μM] % inhibition
T2 construct: host or cells: CHO K1 cells (hB1R cells)
T2 sequence (P46663 1-353): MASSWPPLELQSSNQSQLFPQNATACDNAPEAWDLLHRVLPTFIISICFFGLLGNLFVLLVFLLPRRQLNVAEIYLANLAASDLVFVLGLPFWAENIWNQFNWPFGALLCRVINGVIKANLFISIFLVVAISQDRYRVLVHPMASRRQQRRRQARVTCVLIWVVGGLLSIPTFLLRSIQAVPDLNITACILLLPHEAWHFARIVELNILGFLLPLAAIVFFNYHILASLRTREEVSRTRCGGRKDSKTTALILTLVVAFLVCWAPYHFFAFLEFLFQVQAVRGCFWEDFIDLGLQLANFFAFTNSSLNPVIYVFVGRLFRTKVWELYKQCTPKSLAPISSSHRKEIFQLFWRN
Procedure, shortened: as §1

| inhibition at 10 µM [1] | inhibition at 10 µM [2] | SMILES |
| --- | --- | --- |
| 104% | 41.5% | O=C(COCC1CCCN1S(=O)(=O)c1c(Cl)cc(C(F)(F)F)cc1Cl)N1CCC(O)(c2ccc(Br)cc2)CC1 (stereo not shown) [Example 167, 1-(4-(4-bromophenyl)-4-hydroxypiperidin-1-yl)-2-((1-(2,6-dichloro-4-(trifluoromethyl)phenylsulfonyl)pyrrolidin-2-yl)methoxy)ethanone] |
| 104% | 33.1% | O=C(COCC1CCCN1S(=O)(=O)c1c(Cl)cc(C(F)(F)F)cc1Cl)N1CCC(O)(c2ccccc2)CC1 (stereo not shown) [Example 168, 2-((1-(2,6-dichloro-4-(trifluoromethyl)phenylsulfonyl)pyrrolidin-2-yl)methoxy)-1-(4-hydroxy-4-phenylpiperidin-1-yl)ethanone] |
| 79.4% | 14.6% | O=C(COCC1CCCN1S(=O)(=O)c1c(Cl)cc(C(F)(F)F)cc1Cl)N1CCC(O)(Cc2ccccc2)CC1 (stereo not shown) [Example 169, 1-(4-benzyl-4-hydroxypiperidin-1-yl)-2-((1-(2,6-dichloro-4-(trifluoromethyl)phenylsulfonyl)pyrrolidin-2-yl)methoxy)ethanone] |
| 103% | 25.7% | O=C(COCC1CCCN1S(=O)(=O)c1c(Cl)cc(C(F)(F)F)cc1Cl)N1CCC(O)(c2cccc(C(F)(F)F)c2)CC1 (stereo not shown) [Example 170, 2-((1-(2,6-dichloro-4-(trifluoromethyl)phenylsulfonyl)pyrrolidin-2-yl)methoxy)-1-(4-hydroxy-4-(3-(trifluoromethyl)phenyl)piperidin-1-yl)ethanone] |
| 104% | 0.56% | O=C(COCC1CCCN1S(=O)(=O)c1c(Cl)cc(C(F)(F)F)cc1Cl)N1CCC(O)(c2ccc(Cl)c(C(F)(F)F)c2)CC1 (stereo not shown) [Example 171, 1-(4-(4-chloro-3-(trifluoromethyl)phenyl)-4-hydroxypiperidin-1-yl)-2-((1-(2,6-dichloro-4-(trifluoromethyl)phenylsulfonyl)pyrrolidin-2-yl)methoxy)ethanone] |
| 105% | 103% | O=C(COCC1CCCCN1S(=O)(=O)c1ccccc1C(F)(F)F)N1CCC(O)(c2cccnc2)CC1 (stereo not shown) [Example 172, 1-(4-hydroxy-4-(pyridin-3-yl)piperidin-1-yl)-2-((1-(2-(trifluoromethyl)phenylsulfonyl)piperidin-2-yl)methoxy)ethanone] |
| 104% | 103% | O=C(COCC1CCCCN1S(=O)(=O)c1ccccc1C(F)(F)F)N1CCC(O)(c2ccc(Cl)cc2)CC1 (stereo not shown) [Example 173, 1-(4-(4-chlorophenyl)-4-hydroxypiperidin-1-yl)-2-((1-(2-(trifluoromethyl)phenylsulfonyl)piperidin-2-yl)methoxy)ethanone] |
| 105% | 102% | O=C(COCC1CCCCN1S(=O)(=O)c1ccccc1C(F)(F)F)N1CCC(O)(c2ccc(Br)cc2)CC1 (stereo not shown) [Example 174, 1-(4-(4-bromophenyl)-4-hydroxypiperidin-1-yl)-2-((1-(2-(trifluoromethyl)phenylsulfonyl)piperidin-2-yl)methoxy)ethanone] |
| 104% | 86% | O=C(COCC1CCCCN1S(=O)(=O)c1ccccc1C(F)(F)F)N1CCC(O)(c2ccccc2)CC1 (stereo not shown) [Example 175, 1-(4-hydroxy-4-phenylpiperidin-1-yl)-2-((1-(2-(trifluoromethyl)phenylsulfonyl)piperidin-2-yl)methoxy)ethanone] |
| 102% | 91% | O=C(COCC1CCCCN1S(=O)(=O)c1ccccc1C(F)(F)F)N1CCC(O)(Cc2ccccc2)CC1 (stereo not shown) [Example 176, 1-(4-benzyl-4-hydroxypiperidin-1-yl)-2-((1-(2-(trifluoromethyl)phenylsulfonyl)piperidin-2-yl)methoxy)ethanone] |
| 104% | 101% | O=C(COCC1CCCCN1S(=O)(=O)c1ccccc1C(F)(F)F)N1CCC(O)(c2cccc(C(F)(F)F)c2)CC1 (stereo not shown) [Example 177, 1-(4-hydroxy-4-(3-(trifluoromethyl)phenyl)piperidin-1-yl)-2-((1-(2-(trifluoromethyl)phenylsulfonyl)piperidin-2-yl)methoxy)ethanone] |
| 104% | 89.4% | O=C(COCC1CCCCN1S(=O)(=O)c1ccccc1C(F)(F)F)N1CCC(O)(c2ccc(Cl)c(C(F)(F)F)c2)CC1 (stereo not shown) [Example 178, 1-(4-(4-chloro-3-(trifluoromethyl)phenyl)-4-hydroxypiperidin-1-yl)-2-((1-(2-(trifluoromethyl)phenylsulfonyl)piperidin-2-yl)methoxy)ethanone] |
| 96.6% | 104% | COc1cc(C)c(S(=O)(=O)N2CCCC2COCC(=O)N2CCC(O)(c3cccnc3)CC2)c(C)c1 (stereo not shown) [Example 193, 1-(4-hydroxy-4-(pyridin-3-yl)piperidin-1-yl)-2-((1-(4-methoxy-2,6-dimethylphenylsulfonyl)pyrrolidin-2-yl)methoxy)ethanone] |
| 82.8% | 104% | COc1cc(C)c(S(=O)(=O)N2CCC(COCC(=O)N3CCC(O)(c4cccnc4)CC3)C2)c(C)c1 (stereo not shown) [Example 194, 1-(4-hydroxy-4-(pyridin-3-yl)piperidin-1-yl)-2-((1-(4-methoxy-2,6-dimethylphenylsulfonyl)pyrrolidin-3-yl)methoxy)ethanone] |
| 93.5% | 97.8% | COc1cc(C)c(S(=O)(=O)N2Cc3ccccc3CC2COCC(=O)N2CCC(O)(c3cccnc3)CC2)c(C)c1C (stereo not shown) [Example 195, 1-(4-hydroxy-4-(pyridin-3-yl)piperidin-1-yl)-2-((2-(4-methoxy-2,3,6-trimethylphenylsulfonyl)-1,2,3,4-tetrahydroisoquinolin-3-yl)methoxy)ethanone] |
| 96.5% | 103% | O=C(COCC1CCCCN1S(=O)(=O)c1c(Cl)cccc1Cl)N1CCC(O)(c2cccnc2)CC1 (stereo not shown) [Example 196, 2-((1-(2,6-dichlorophenylsulfonyl)piperidin-2-yl)methoxy)-1-(4-hydroxy-4-(pyridin-3-yl)piperidin-1-yl)ethanone] |
| 96.4% | 103% | O=C(COCC1CCCN1S(=O)(=O)c1c(Cl)cccc1Cl)N1CCC(O)(c2cccnc2)CC1 (stereo not shown) [Example 197, 2-((1-(2,6-dichlorophenylsulfonyl)pyrrolidin-2-yl)methoxy)-1-(4-hydroxy-4-(pyridin-3-yl)piperidin-1-yl)ethanone] |
| 99.2% | 106% | Cc1cc(Cl)cc(Cl)c1S(=O)(=O)N(C)CCOCC(=O)N1CCC(O)(c2ccccn2)CC1 [Example 198, 2,4-dichloro-N-(2-(2-(4-hydroxy-4-(pyridin-2-yl)piperidin-1-yl)-2-oxoethoxy)ethyl)-N,6-dimethylphenylsulfonamide] |
| 98.2% | 105% | Cc1cc(S(=O)(=O)N(C)CCOCC(=O)N2CCC(O)(c3cccnc3)CC2)c(Cl)cc1Cl [Example 199, 2,4-dichloro-N-(2-(2-(4-hydroxy-4-(pyridin-3-yl)piperidin-1-yl)-2-oxoethoxy)ethyl)-N,5-dimethylphenylsulfonamide] |
| 98.1% | 29.8% | Cc1cc(C)c(S(=O)(=O)N2Cc3ccccc3CC2COCC(=O)N2CCC(O)(c3ccc(Cl)cc3)CC2)c(C)c1 (stereo not shown) [Example 200, 1-(4-(4-chlorophenyl)-4-hydroxypiperidin-1-yl)-2-((2-(mesitylsulfonyl)-1,2,3,4-tetrahydroisoquinolin-3-yl)methoxy)ethanone] |
| 80% | 14.9% | Cc1cc(C)c(S(=O)(=O)N2Cc3ccccc3CC2COCC(=O)N2CCC(O)(Cc3ccccc3)CC2)c(C)c1 (stereo not shown) [Example 201, 1-(4-benzyl-4-hydroxypiperidin-1-yl)-2-((2-(mesitylsulfonyl)-1,2,3,4-tetrahydroisoquinolin-3-yl)methoxy)ethanone] |
| 98.5% | 99.2% | COc1cc(C)c(S(=O)(=O)N2CCC(COCC(=O)N3CCC(O)(c4ccc(Cl)cc4)CC3)C2)c(C)c1 (stereo not shown) [Example 202, 1-(4-(4-chlorophenyl)-4-hydroxypiperidin-1-yl)-2-((1-(4-methoxy-2,6-dimethylphenylsulfonyl)pyrrolidin-3-yl)methoxy)ethanone] |
| 85.1% | 84.2% | O=C(COCC1CCCN1S(=O)(=O)c1cc(Cl)sc1Cl)N1CCC(O)(c2cccnc2)CC1 (stereo not shown) [Example 203, 2-((1-(2,5-dichlorothiophen-3-ylsulfonyl)pyrrolidin-2-yl)methoxy)-1-(4-hydroxy-4-(pyridin-3-yl)piperidin-1-yl)ethanone] |

Source: patent US8580965B2, “Substituted sulfonamide compounds” (Gruenenthal GmbH, priority 2006, dated 2013)
